Measured values as given in patent US20150291593A1, “NOVEL HETEROARYL AND HETEROCYCLE COMPOUNDS, COMPOSITIONS AND METHODS” (HUTCHISON MEDIPHARMA LIMITED, priority 2012, published 2015).

How the values were obtained:
Assay type in all cases: biochemical
p110δ/p85α = target: T1, p110δ/p85α (Homo sapiens, UniProt O00329); assay: Transcreener KINASE Assay, kinase inhibition of p110δ/p85α; conditions: for IC50: read-out: PI3Kδ IC50
T1 construct: purchased Invitrogen
Procedure: (§1) PI3K kinases including p110α/p85α, p110δ/p85α and p110γ are purchased from Invitrogen, and p110β/p85α is from Millipore.
(§2) Primary screening data and IC50 values are measured using Transcreener™ KINASE Assay (Bellbrook, Catalog #3003-10K). […] It is a universal, homogenous, high throughput screening (HTS) technology using a far-red, competitive fluorescence polarization immunoassay based on the detection of ADP to monitor the activity of enzymes that catalyze group transfer reactions. Briefly, the Transcreener KINASE Assay is designed as a simple two-part, endpoint assay.
(§3) In the first step, the 25 ul kinase reaction is performed by preparing a reaction mixture containing 5 ul test compound (2% DMSO final concentration), 10 ul kinase, buffer (50 mM HEPES, 100 mM NaCl, 1 mM EGTA, 0.03% CHAPS, 3 mM MgCl2, and freshly supplemented 1 mM DTT), and 10 ul 30 uM PIP2/10 uM ATP. The plate is sealed and incubated for 80 min at room temperature. Next, 25 ul ADP detection mix is added per well. The plate is sealed again and incubated for 60 min at room temperature, and then measure fluorescence polarization by Tecan Infinite F500 Reader.
(§4) Data is analyzed and IC50s are generated using the add-in software for Microsoft Excel, Xlfit™ (version 2.0). IH %=(ADP amount under 2% DMSO-ADP amount under test compound)/ADP amount under 2% DMSO.

p110γ = target: T2, p110γ (Homo sapiens, UniProt P48736); assay: Transcreener KINASE Assay, kinase inhibition of p110γ; conditions: for IC50: read-out: PI3Kγ IC50
T2 construct: purchased Invitrogen
Procedure: PI3K kinases including p110α/p85α, p110δ/p85α and p110γ are purchased from Invitrogen, and p110β/p85α is from Millipore. Primary screening data and IC50 values are measured using Transcreener™ KINASE Assay (Bellbrook, Catalog #3003-10K). […] It is a universal, homogenous, high throughput screening (HTS) technology using a far-red, competitive fluorescence polarization immunoassay based on the detection of ADP to monitor the activity of enzymes that catalyze group transfer reactions. Briefly, the Transcreener KINASE Assay is designed as a simple two-part, endpoint assay. […] The plate is sealed and incubated for 80 min at room temperature. Next, 25 ul ADP detection mix is added per well. The plate is sealed again and incubated for 60 min at room temperature, and then measure fluorescence polarization by Tecan Infinite F500 Reader. Data is analyzed and IC50s are generated using the add-in software for Microsoft Excel, Xlfit™ (version 2.0).

p110β/p85α = target: T3, p110β/p85α (Homo sapiens, UniProt P42338); assay: Transcreener KINASE Assay, kinase inhibition of p110β/p85α; conditions: for IC50: read-out: PI3Kβ IC50
T3 construct: purchased Millipore
Procedure: as §1, §2, §3, §4

T2 sequence (P48736 whole entry, species assumed): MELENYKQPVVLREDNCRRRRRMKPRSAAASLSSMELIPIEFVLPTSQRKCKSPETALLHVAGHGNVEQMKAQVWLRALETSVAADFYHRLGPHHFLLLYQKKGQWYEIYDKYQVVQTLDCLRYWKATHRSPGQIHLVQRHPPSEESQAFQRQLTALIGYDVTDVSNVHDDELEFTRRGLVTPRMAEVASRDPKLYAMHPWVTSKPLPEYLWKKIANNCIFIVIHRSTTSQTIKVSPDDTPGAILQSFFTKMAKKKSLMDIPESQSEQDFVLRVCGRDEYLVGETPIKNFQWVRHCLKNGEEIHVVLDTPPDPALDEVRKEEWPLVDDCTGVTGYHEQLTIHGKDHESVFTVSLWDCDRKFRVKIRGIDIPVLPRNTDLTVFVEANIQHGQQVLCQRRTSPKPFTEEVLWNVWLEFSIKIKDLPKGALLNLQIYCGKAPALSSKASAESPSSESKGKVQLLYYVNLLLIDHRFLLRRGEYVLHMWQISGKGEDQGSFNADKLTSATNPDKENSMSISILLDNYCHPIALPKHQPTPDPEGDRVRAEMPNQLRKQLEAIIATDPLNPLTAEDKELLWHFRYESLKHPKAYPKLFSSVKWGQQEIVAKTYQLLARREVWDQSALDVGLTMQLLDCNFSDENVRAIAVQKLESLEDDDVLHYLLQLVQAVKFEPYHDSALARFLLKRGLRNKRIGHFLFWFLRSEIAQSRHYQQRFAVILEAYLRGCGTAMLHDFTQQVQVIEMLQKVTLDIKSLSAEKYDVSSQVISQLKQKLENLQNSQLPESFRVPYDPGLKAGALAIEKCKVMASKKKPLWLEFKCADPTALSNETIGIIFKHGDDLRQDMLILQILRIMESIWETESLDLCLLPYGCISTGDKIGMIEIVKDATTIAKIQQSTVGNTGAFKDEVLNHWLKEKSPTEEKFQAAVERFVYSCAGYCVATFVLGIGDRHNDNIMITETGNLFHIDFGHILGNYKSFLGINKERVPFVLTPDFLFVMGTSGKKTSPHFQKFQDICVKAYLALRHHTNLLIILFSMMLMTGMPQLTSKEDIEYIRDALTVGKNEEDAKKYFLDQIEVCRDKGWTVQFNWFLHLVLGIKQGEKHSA
T3 sequence (P42338 whole entry, species assumed): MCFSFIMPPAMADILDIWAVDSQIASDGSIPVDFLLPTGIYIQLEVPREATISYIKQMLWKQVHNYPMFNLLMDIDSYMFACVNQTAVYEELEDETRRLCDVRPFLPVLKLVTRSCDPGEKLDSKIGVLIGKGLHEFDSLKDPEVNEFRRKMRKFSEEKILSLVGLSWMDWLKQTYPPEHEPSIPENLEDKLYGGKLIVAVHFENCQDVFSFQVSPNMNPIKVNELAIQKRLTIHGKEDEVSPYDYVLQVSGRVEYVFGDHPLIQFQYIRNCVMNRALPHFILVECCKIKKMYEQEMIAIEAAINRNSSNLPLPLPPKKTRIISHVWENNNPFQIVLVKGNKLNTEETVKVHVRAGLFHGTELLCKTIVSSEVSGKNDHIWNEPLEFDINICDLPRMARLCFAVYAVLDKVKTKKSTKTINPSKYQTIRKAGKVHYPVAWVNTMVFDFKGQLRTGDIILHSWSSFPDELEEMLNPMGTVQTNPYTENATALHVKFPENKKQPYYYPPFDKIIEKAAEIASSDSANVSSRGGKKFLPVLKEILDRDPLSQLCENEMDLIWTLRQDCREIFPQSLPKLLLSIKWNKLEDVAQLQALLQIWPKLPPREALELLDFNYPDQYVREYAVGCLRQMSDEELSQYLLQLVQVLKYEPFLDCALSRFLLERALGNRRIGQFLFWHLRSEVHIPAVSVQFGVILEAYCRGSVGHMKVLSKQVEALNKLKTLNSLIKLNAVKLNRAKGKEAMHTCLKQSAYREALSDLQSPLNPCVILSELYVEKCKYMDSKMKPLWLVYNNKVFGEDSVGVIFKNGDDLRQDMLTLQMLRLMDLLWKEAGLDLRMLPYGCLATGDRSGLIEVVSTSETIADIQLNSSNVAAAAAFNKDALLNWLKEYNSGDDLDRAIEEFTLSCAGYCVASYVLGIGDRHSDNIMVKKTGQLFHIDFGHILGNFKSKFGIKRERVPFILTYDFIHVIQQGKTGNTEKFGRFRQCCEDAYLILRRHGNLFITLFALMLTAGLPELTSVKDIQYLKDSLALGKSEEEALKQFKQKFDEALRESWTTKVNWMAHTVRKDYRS
T3 sequence (P27986 whole entry partner, species assumed): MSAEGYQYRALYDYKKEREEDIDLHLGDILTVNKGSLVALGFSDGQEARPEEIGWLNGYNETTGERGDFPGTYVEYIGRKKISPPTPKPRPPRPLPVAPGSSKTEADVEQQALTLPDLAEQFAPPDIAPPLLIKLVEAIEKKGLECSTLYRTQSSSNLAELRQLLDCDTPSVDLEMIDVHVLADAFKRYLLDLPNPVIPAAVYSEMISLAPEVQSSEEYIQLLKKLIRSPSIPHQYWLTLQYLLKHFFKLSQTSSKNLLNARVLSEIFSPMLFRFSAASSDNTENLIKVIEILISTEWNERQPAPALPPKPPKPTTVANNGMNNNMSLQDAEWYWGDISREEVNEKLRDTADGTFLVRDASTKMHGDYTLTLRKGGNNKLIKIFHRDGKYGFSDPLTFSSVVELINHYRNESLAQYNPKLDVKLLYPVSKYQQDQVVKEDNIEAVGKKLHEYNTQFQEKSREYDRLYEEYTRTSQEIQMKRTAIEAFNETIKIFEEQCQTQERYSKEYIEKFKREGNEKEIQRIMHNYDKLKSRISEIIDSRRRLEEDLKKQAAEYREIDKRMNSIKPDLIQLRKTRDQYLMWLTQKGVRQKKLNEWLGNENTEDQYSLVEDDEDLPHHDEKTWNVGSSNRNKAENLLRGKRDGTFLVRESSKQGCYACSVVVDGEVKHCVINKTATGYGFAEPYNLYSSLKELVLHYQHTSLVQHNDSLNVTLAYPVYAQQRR
T1 sequence (O00329 whole entry, species assumed): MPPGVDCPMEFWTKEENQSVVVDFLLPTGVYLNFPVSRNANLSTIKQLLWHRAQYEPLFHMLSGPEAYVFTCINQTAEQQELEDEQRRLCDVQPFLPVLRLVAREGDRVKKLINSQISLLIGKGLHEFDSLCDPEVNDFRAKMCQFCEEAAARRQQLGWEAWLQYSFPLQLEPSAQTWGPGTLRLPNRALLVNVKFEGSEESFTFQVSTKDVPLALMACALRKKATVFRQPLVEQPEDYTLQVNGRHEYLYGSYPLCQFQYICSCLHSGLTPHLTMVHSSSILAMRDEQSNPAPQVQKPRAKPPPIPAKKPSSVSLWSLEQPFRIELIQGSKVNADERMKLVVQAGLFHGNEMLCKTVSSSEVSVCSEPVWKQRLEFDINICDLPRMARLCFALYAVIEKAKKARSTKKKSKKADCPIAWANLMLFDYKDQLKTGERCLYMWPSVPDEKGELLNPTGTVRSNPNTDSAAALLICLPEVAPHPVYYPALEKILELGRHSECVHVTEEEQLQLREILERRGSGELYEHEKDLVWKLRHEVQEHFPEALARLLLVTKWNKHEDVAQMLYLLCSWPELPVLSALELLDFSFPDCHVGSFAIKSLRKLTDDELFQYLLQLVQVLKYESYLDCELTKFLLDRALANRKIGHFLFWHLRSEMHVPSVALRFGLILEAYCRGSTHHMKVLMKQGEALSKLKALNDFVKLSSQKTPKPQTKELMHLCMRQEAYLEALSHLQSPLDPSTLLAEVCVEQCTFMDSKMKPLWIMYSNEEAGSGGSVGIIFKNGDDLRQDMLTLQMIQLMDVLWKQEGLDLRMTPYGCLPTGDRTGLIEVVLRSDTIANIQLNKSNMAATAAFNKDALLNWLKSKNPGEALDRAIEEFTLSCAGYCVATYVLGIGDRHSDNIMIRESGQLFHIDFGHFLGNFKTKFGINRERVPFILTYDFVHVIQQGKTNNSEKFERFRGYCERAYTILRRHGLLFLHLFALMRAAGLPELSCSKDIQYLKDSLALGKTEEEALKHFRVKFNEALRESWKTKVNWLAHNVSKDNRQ
T1 sequence (P27986 whole entry partner, species assumed): as the sequence (P27986 whole entry partner, species assumed) above

CC(Nc1ncnc2[nH]cnc12)c1cn2ccc(Cl)c2c(=O)n1-c1cc(F)cc(F)c1 (centres unmarked) [Compound 80]
PI3Kδ IH % @ 1 uM (p110δ/p85α): >100% | IC50 (p110δ/p85α): 7 nM | IC50 (p110γ): 46 nM

O=c1c2cccn2nc([C@@H]2CCCN2c2ncnc3[nH]cc(-c4cn[nH]c4)c23)n1-c1ccccc1 [Compound 99]
PI3Kβ IH % @ 1 uM (p110β/p85α): 78.8% | IC50 (p110β/p85α): 147 nM | PI3Kδ IH % @ 1 uM (p110δ/p85α): >100% | IC50 (p110δ/p85α): 3 nM | PI3Kγ IH % @ 1 uM (p110γ): 94.2% | IC50 (p110γ): 6 nM

O=c1c2cccn2nc([C@@H]2CCCN2c2ncnc3[nH]nc(Br)c23)n1-c1ccccc1 [Compound 12]
PI3Kβ IH % @ 1 uM (p110β/p85α): 23.1% | PI3Kδ IH % @ 1 uM (p110δ/p85α): 80.6% | IC50 (p110δ/p85α): 158 nM | PI3Kγ IH % @ 1 uM (p110γ): 27.9%

C[S+]([O-])c1c[nH]c2ncnc(N3CCC[C@H]3c3nn4ccc(Cl)c4c(=O)n3-c3ccccc3)c12 (some centres unmarked) [Compound 188]
IC50 (p110β/p85α): 741 nM | IC50 (p110δ/p85α): 5 nM | IC50 (p110γ): 17 nM

N#Cc1cnc(N)nc1N1CCC1c1nn2ccc(Cl)c2c(=O)n1CC1CC1 (centres unmarked) [Compound 373]
IC50 (p110β/p85α): > 1000 nM | IC50 (p110δ/p85α): 27 nM | IC50 (p110γ): 361 nM

COc1ncc(-c2c[nH]c3ncnc(N4CC[C@H]4c4nn5ccc(F)c5c(=O)n4-c4ccccc4)c23)cn1 [Compound 181]
IC50 (p110δ/p85α): < 0.46 nM

C[S+]([O-])c1cnc(N)nc1N1CC[C@H]1c1nn2ccc(Cl)c2c(=O)n1-c1ccccc1 (some centres unmarked) [Compound 399]
PI3Kβ IH % @ 1 uM (p110β/p85α): 3.5%

Nc1ncc([N+](=O)[O-])c(N2CC[C@H]2c2nn3ccc(Cl)c3c(=O)n2-c2ccccc2)n1 [Compound 282]
IC50 (p110δ/p85α): 40 nM | IC50 (p110γ): 25 nM

CC(Nc1ncnc2[nH]cnc12)c1cn2ccc(Cl)c2c(=O)n1-c1ccc(F)cc1 (centres unmarked) [Compound 78]
IC50 (p110β/p85α): 26 nM | IC50 (p110γ): 18 nM

C[C@H]1CCN(c2ncnc3[nH]cc(C#N)c23)C1c1nn2ccc(Cl)c2c(=O)n1-c1ccccc1 (some centres unmarked) [Compound 233]
IC50 (p110β/p85α): 26 nM | IC50 (p110δ/p85α): 4 nM | IC50 (p110γ): 13 nM

O=c1c2c(Cl)ccn2nc([C@@H]2C[C@H](O)CN2c2ncnc3[nH]cnc23)n1-c1ccccc1 [Compound 262]
IC50 (p110δ/p85α): < 1 nM

N#Cc1cccc(-n2c([C@@H]3CCCN3c3ncnc4[nH]cc(C#N)c34)nn3cccc3c2=O)c1 [Compound 23]
PI3Kβ IH % @ 1 uM (p110β/p85α): 36.9% | PI3Kδ IH % @ 1 uM (p110δ/p85α): 99.2% | PI3Kγ IH % @ 1 uM (p110γ): 81.9% | IC50 (p110γ): 273 nM

O=c1c2cccn2nc([C@H]2CCCN2c2ncnc3[nH]cnc23)n1-c1ccccc1 [Compound 24]
PI3Kβ IH % @ 1 uM (p110β/p85α): 8.3% | PI3Kδ IH % @ 1 uM (p110δ/p85α): 17.7% | PI3Kγ IH % @ 1 uM (p110γ): 14.1%

COc1cccc(-n2c([C@@H]3CCCC3c3ncnc4[nH]cnc34)nn3cccc3c2=O)c1 (some centres unmarked) [Compound 20]
PI3Kβ IH % @ 1 uM (p110β/p85α): 7.5% | PI3Kδ IH % @ 1 uM (p110δ/p85α): 97.4% | PI3Kγ IH % @ 1 uM (p110γ): 68.6%

O=c1c2cccn2nc([C@@H]2CCCN2c2ncnc3[nH]cnc23)n1-c1ccc(F)cc1 [Compound 14]
PI3Kβ IH % @ 1 uM (p110β/p85α): 56.9% | PI3Kδ IH % @ 1 uM (p110δ/p85α): 90.7% | PI3Kγ IH % @ 1 uM (p110γ): 78.1% | IC50 (p110γ): 265 nM

N#Cc1c[nH]c2ncnc(N3CCC[C@H]3c3nn4c(F)ccc4c(=O)[nH]3)c12 [Compound 106, (S)-4-(2-(7-fluoro-4-oxo-3,4-dihydropyrrolo[1,2-f][1,2,4]triazin-2-yl)pyrrolidin-1-yl)-7H-pyrrolo[2,3-d]pyrimidine-5-carbonitrile]
PI3Kβ IH % @ 1 uM (p110β/p85α): 61.9% | PI3Kδ IH % @ 1 uM (p110δ/p85α): 86.8% | IC50 (p110δ/p85α): 232 nM | PI3Kγ IH % @ 1 uM (p110γ): 41.1%

O=c1c2c(Cl)ccn2nc([C@@H]2CCCN2c2ncnc3[nH]cnc23)n1CC1CC1 [Compound 256]
PI3Kβ IH % @ 1 uM (p110β/p85α): 68.1% | PI3Kδ IH % @ 1 uM (p110δ/p85α): 97.5% | IC50 (p110δ/p85α): 6 nM | PI3Kγ IH % @ 1 uM (p110γ): >100% | IC50 (p110γ): 82 nM

O=c1c2c(Cl)ccn2nc([C@@H]2COCCN2c2ncnc3[nH]cnc23)n1-c1ccccc1 [Compound 153]
IC50 (p110δ/p85α): 11 nM | IC50 (p110γ): 165 nM

CC(Nc1ncnc2[nH]cc(F)c12)c1cc2ncc(Cl)n2c(=O)n1-c1ccccc1 (single isomer, unassigned) [Compound 451]
IC50 (p110δ/p85α): 35 nM

N#Cc1c[nH]c2ncnc(N3CCC[C@@H]3c3nn4cccc4c(=O)n3-c3ccccc3)c12 [Compound 22]
PI3Kβ IH % @ 1 uM (p110β/p85α): 8.9% | PI3Kδ IH % @ 1 uM (p110δ/p85α): 7.7% | PI3Kγ IH % @ 1 uM (p110γ): 21.2%

COc1cccc(-n2c([C@@H]3CCCN3c3ncnc(N)c3C#N)nn3cccc3c2=O)c1 [Compound 19]
PI3Kβ IH % @ 1 uM (p110β/p85α): 24.0% | PI3Kδ IH % @ 1 uM (p110δ/p85α): 100% | PI3Kγ IH % @ 1 uM (p110γ): 75.7% | IC50 (p110γ): 287 nM

COc1ccc(-c2c(N)ncnc2N2CC[C@H]2c2nn3ccc(Cl)c3c(=O)n2-c2ccccc2)cn1 [Compound 108, (S)-2-(1-(6-amino-5-(6-methoxypyridin-3-yl)pyrimidin-4-yl)azetidin-2-yl)-5-chloro-3-phenylpyrrolo[1,2-f][1,2,4]triazin-4(3H)-one]
IC50 (p110δ/p85α): 97 nM | IC50 (p110γ): 199 nM

N#Cc1ccn2nc([C@@H]3CCCN3c3ncnc4[nH]cnc34)n(-c3ccccc3)c(=O)c12 [Compound 112]
PI3Kβ IH % @ 1 uM (p110β/p85α): 34.5% | PI3Kδ IH % @ 1 uM (p110δ/p85α): 94.6% | IC50 (p110δ/p85α): 26 nM | PI3Kγ IH % @ 1 uM (p110γ): 96.4% | IC50 (p110γ): 231 nM

N#Cc1c[nH]c2ncnc(N3C[C@@H](F)C[C@H]3c3nn4ccc(Cl)c4c(=O)n3Cc3ccccn3)c12 [Compound 158]
PI3Kγ IH % @ 1 uM (p110γ): 100%

COc1ccc(-c2c[nH]c3ncnc(N4CC[C@H]4c4nn5ccc(F)c5c(=O)n4-c4ccccc4)c23)cn1 [Compound 182]
IC50 (p110δ/p85α): < 0.46 nM

N#Cc1c[nH]c2ncnc(N3C[C@H](O)C[C@H]3c3nn4ccc(Cl)c4c(=O)n3-c3ccccc3)c12 [Compound 70, 4-((2S,4R)-2-(5-chloro-4-oxo-3-phenyl-3,4-dihydropyrrolo[1,2-f][1,2,4]triazin-2-yl)-4-hydroxypyrrolidin-1-yl)-7H-pyrrolo[2,3-d]pyrimidine-5-carbonitrile]
PI3Kγ IH % @ 1 uM (p110γ): >100%

C[S+]([O-])c1c[nH]c2ncnc(N3CCC[C@H]3c3nn4ccc(Cl)c4c(=O)n3-c3ccccc3)c12 (some centres unmarked) [Compound 187]
IC50 (p110β/p85α): 88 nM | IC50 (p110γ): 33 nM

Cc1ccn2nc([C@@H]3CCCN3c3ncnc4[nH]cc(C#N)c34)n(-c3ccccc3)c(=O)c12 [Compound 42]
IC50 (p110δ/p85α): ~1 nM

Nc1ncc(-c2c[nH]c3ncnc(N4CC[C@H]4c4nn5ccc(Cl)c5c(=O)n4-c4ccccc4)c23)cn1 [Compound 104]
IC50 (p110δ/p85α): < 0.5 nM

CC(O)c1cnc(N)nc1N1CC[C@H]1c1nn2ccc(Cl)c2c(=O)n1-c1ccccc1 (stereo partly drawn) [Compound 357, 2-((2S)-1-(2-amino-5-(1-hydroxyethyl)pyrimidin-4-yl)azetidin-2-yl)-5-chloro-3-phenylpyrrolo[2,1-f][1,2,4]triazin-4(3H)-one]
IC50 (p110δ/p85α): > 300 nM

CO/N=C(\C)c1c[nH]c2ncnc(N3CCC[C@H]3c3nn4ccc(Cl)c4c(=O)n3-c3ccccc3)c12 [Compound 308]
IC50 (p110δ/p85α): 21 nM | IC50 (p110γ): 37 nM

O=c1c2c(Cl)ccn2nc([C@@H]2CCCN2c2ncnc3[nH]ccc23)n1-c1ccccc1 [Compound 145]
PI3Kγ IH % @ 1 uM (p110γ): 100%

Nc1ccc(-c2c[nH]c3ncnc(N4CC[C@H]4c4nn5ccc(F)c5c(=O)n4-c4ccccc4)c23)cn1 [Compound 183]
IC50 (p110δ/p85α): < 0.46 nM

CC(Nc1ncnc(N)c1C#N)c1cn2ccc(Cl)c2c(=O)n1-c1ccc(F)cc1 (centres unmarked) [Compound 79]
IC50 (p110β/p85α): 6 nM | PI3Kδ IH % @ 1 uM (p110δ/p85α): 99.0%
